Consider ten molecules from US9938510B2, “Photobacterium sp. alpha-2-6-sialyltransferase variants” (The Regents of the University of California, priority 2014, dated 2018).

Where a chain is given by its changes, count along the chain named. Names may count otherwise. Read-outs that look alike come from different tables or passages of the source.

In data set [1] the test system is Photobacterium sp. JH-ISH-224 α2-6-sialyltransferase Psp26ST(15-501)-His6 A366G mutant, SEQ ID NO: 2. Description: Sialyltransferase kinetics, Psp26ST(15-501)-His6 A366G mutant. It counts as biochemical. The conditions noted are these: apparent. Here is the method: Reactions were carried out in duplicate at 20° C. for 20 minutes in a total volume of 10 μL in a proper buffer at the optimal pH according to the pH profile of the wild-type enzyme (see, Ding, 2011, supra). When LacβMU was used as an acceptor, the conditions were: Tris-HCl buffer (200 mM, pH 8.0), enzyme (0.3 μM), varied concentrations of LacβMU (0.1, 0.25, 0.4, 1.0, 2.0, 4.0, and 6.0 mM) with a fixed concentration of CMP-Neu5Ac (1.0 mM) or varied concentrations of CMP-Neu5Ac (0.1, 0.25, 0.4, 1.0, 2.0, 4.0, and 6.0 mM) with a fixed concentration of LacβMU (1.0 mM). When GalNAcα2AA was used as an acceptor, the conditions were: NaOAc-HOAc buffer (200 mM, pH 5.0), enzyme (6 μM), varied concentrations of GalNAcα2AA (0.5, 0.8, 1.0, 2.0, 4.0, 8.0, and 10.0 mM) and a fixed concentration of CMP-Neu5Ac (4.0 mM) or varied concentrations of CMP-Neu5Ac (0.5, 1.0, 2.0, 4.0, 5.0, 8.0, and 10.0 mM) with a fixed concentration of GalNAcα2AA (1.0 mM). When GalNAcαSer was used as an acceptor, the conditions were: Tris-HCl buffer (200 mM, pH 8.0), enzyme (0.6 μM), varied concentrations of GalNAcαSer (0.1, 0.25, 0.5, 1.0, 2.0, 4.0, 8.0, and 10.0 mM) and a fixed concentration of CMP-Neu5Ac (2.0 mM). When GalNAcαThr was used as an acceptor, the conditions were: Tris-HCl buffer (200 mM, pH 8.0), enzyme (3.0 μM), varied concentrations of GalNAcαThr (0.5, 1.0, 2.0, 4.0, 10.0, 20.0, 40.0, 60.0 mM) and a fixed concentration of CMP-Neu5Ac (4.0 mM). Results analysis was performed using the HPLC system as described above for sialyltransferase activity assays. Apparent kinetic parameters were obtained by fitting the experimental data (the average values of duplicate assay results) into the Michaelis-Menten equation using Grafit 5.0.

The test system of data set [2] is Photobacterium sp. JH-ISH-224 α2-6-sialyltransferase Psp26ST(15-501)-His6, wild type, SEQ ID NO: 23. The conditions noted are these: apparent, cited from earlier work.
Substrate in data set [3]: CC(=O)N[C@H]1[C@H]([C@H](O)[C@H](O)CO)O[C@](OP(=O)(O)OC[C@H]2O[C@@H](n3ccc(N)nc3=O)[C@H](O)[C@@H]2O)(C(=O)O)C[C@@H]1O
The data set is described as follows: Donor hydrolysis kinetics (CMP-Neu5Ac hydrolysis), Psp2,6ST(15-501)-His6 A235D mutant. The format is biochemical, Photobacterium sp. JH-ISH-224. The note with it: other: apparent, 20° C., 10 min, Tris-HCl pH 8.0. Here is the method: (§1) Procedure for Kinetic Analysis of Donor Hydrolysis by His6-Pd2,6ST(16-497), Psp26ST(15-501)-His6 and its A235D and A366G Mutants
(§2) The kinetics study for the donor hydrolysis activity of His6-Pd2,6ST(16-497) was carried out at 37° C. for 20 min in Tris-HCl buffer (200 mM, pH 8.0). The kinetics study for the donor hydrolysis activities of Psp26ST(15-501)-His6 and its A235D mutant was carried out at 20° C. for 10 min in Tris-HCl buffer (200 mM, pH 8.0). All reactions were performed in duplicate in a total volume of 10 μL containing varied concentrations of CMP-Neu5Ac (10, 20, 40, 60, 80 and 100 mM) and the enzyme (6 μM). Reactions were stopped by adding 10 μL of ethanol and then centrifuged. The supernatants were analyzed by a P/ACETM capillary electrophoresis (CE) system equipped with a photodiode array (PDA) detector (Beckman Coulter, Inc., Fullerton, Calif.). CE conditions were as follows: 75 μm i.d. capillary, 25 KV/80μÅ, 5 s vacuum injections, monitored at 200 nm and 254 nm, the running buffer used was sodium tetraborate (25 mM, pH 9.4). Apparent kinetic parameters were obtained by fitting the experimental data (the average values of duplicate assay results) into the Michaelis-Menten equation using Grafit 5.0.

Data set [4] can be described thus: One-pot two-enzyme (OP2E) sialylation with NmCSS, GalNAcαThr as acceptor. The format is biochemical. The note with it: 2.5 equivalents of Neu5Ac and 5.0 equivalents of CTP. An excerpt:
White bars: GalNAcαSer was used as an acceptor with 1 equivalent of Neu5Ac and 1.5 equivalents of CTP. Grey bars: GalNAcαSer was used as an acceptor with 2.5 equivalents of Neu5Ac and 5.0 equivalents of CTP. Black bars: GalNAcαThr was used as an acceptor with 2.5 equivalents of Neu5Ac and 5.0 equivalents of CTP.
In this system, CTP and Neu5Ac were used by NmCSS for the formation of CMP-Neu5Ac in situ (see also, Yu and Chen, et al. Bioorg. Med. Chem. 2004, 12, 6427-6435). CMP-Neu5Ac was used as the donor substrate for Psp26ST(15-501)-His6 or its mutants. […] For example, using 1 equivalent of Neu5Ac and 1.5 equivalents of CTP in the one-pot two-enzyme (OP2E) reaction (white bars in FIG. 6) improved the GalNAcαSer α2-6-sialylation reaction yields from less than 6% (1 equivalent CMP-Neu5Ac was used) (FIG. 5B) to 32-51% for W365A, W365G, W365S mutants. Similarly, the OP2E reaction improved the GalNAcαSer α2-6-sialylation reaction yields from 40% and 37% to 75% and 67% for A366G mutant and the wild-type enzyme, respectively. Increasing the concentrations of Neu5Ac and CTP to 2.5 and 5.0 equivalents further improved the reaction yields to more than 67% for Psp26ST(15-501)-His6 and its mutants ([…]). […] Therefore, in situ generation of CMP-Neu5Ac, the sugar nucleotide donor for sialyltransferases, was proven an efficient method to enhance the yields for sialylation reactions catalyzed not only by the wild-type enzymes but also sialyltransferase mutants.

Data set [5] in a line: Sialyltransferase activity assays, statements not tied to one acceptor (LacβMU, GalNAcα2AA, GalNAcαSer, GalNAcαThr). It counts as biochemical. As for the experimental part: When LacβMU was used as an acceptor, the assay was performed in duplicate in 10 μL of Tris-HCl buffer (100 mM, pH 8.0) containing CMP-Neu5Ac (1 mM), LacβMU (1 mM), MgCl2 (20 mM), wild-type Psp2,6ST(15-501)-His6 or its mutant (0.3 μM). When an α-GalNAc-terminated acceptor was used, the assay was performed in duplicate in 10 μL of Tris-HCl buffer (100 mM, pH 8.0 for GalNAcαSer/Thr) or NaOAc-HOAc (100 mM, pH 5.0 for GalNAcα2AA) containing CMP-Neu5Ac (1.5 mM), the acceptor (1 mM), MgCl2 (20 mM), wild-type Psp2,6ST(15-501)-His6 or its mutant (3.0 μM). Reactions were allowed to proceed at 20° C. for 20 min and stopped by adding 10 μL of cold ethanol. The analysis of sialylated product conversion was performed using the HPLC system as described above for sialyltransferase activity assay. The 4-methylumbelliferone (MU)-labeled fluorescent acceptor and the product formed were detected with excitation at 325 nm and emission at 372 nm. The 2-aminobenzoic acid (2AA)-labeled fluorescent acceptors and the products formed were detected with excitation at 315 nm and emission at 400 nm. The 9-fluorenylmethylcarbamate (Fmoc)-labeled fluorescent acceptors and the products formed were detected with excitation at 262 nm and emission at 313 nm.

Data set [6] is described as follows: Kinetics of CMP-Neu5Ac donor hydrolysis activity (capillary electrophoresis). The format is biochemical. Here is the method:
as §1, §2

[7] abbreviates: varied LacβMU, CMP-Neu5Ac 1.0 mM, Tris-HCl pH 8.0, 20° C.

As to `Cc1cc(=O)oc2cc(O[C@@H]3O[C@H](CO)[C@@H](O[C@@H]4O[C@H](CO)[C@H](O)[C@H](O)[C@H]4O)[C@H](O)[C@H]3O)ccc12` [LacβMU], in data set [1] (setting [7]), the Michaelis-Menten constant (Km) is 0.41 mM and the kcat result is “(1.0 ± 0.1) × 10^2 min^−1”. Also, in data set [2] (acceptor LacβMU), the Km was 0.36 mM and the kcat entry is “(1.0 ± 0.1) × 10^2 min^−1”. Take GalNAcα2AA: the Km is 5.5 ± 1 mM in data set [1] (varied GalNAcα2AA, CMP-Neu5Ac 4.0 mM, NaOAc-HOAc pH 5.0, 20° C.) and 9.5 ± 2.7 mM in data set [2] (acceptor GalNAcα2AA). For the molecule `CC(=O)N[C@H]1[C@@H](O[C@H](C)[C@H](N)C(=O)O)O[C@H](CO)[C@H](O)[C@@H]1O` [GalNAcαOThr], the Km in data set [1] (varied GalNAcαThr, CMP-Neu5Ac 4.0 mM, Tris-HCl pH 8.0, 20° C.) was 7.2 ± 3 mM; in data set [2] (acceptor GalNAcαOThr), 5.9 ± 1.6 mM.

Take `CC(=O)N[C@H]1[C@@H](OC[C@H](N)C(=O)O)O[C@H](CO)[C@H](O)[C@@H]1O` [GalNAcαOSer]: the Km was 1.7 ± 0.7 mM in data set [1] (varied GalNAcαSer, CMP-Neu5Ac 2.0 mM, Tris-HCl pH 8.0, 20° C.) and 1.4 ± 0.1 mM in data set [2] (acceptor GalNAcαOSer).

B1: Photobacterium sp. JH-ISH-224 α2-6-sialyltransferase Psp2,6ST(15-501)-His6 A235D mutant, SEQ ID NO: 14 (Photobacterium sp. JT-ISH-224; A235D) (protein)
chain: CNNSEENTQSIIKNDINKTIIDEEYVNLEPINQSNISFTKHSWVQTCGTQQLLTEQNKESISLSVVAPRLDDDEKYCFDFNGVSNKGEKYITKVTLNVVAPSLEVYVDHASLPTLQQLMDIIKSEEENPTAQRYIAWGRIVPTDEQMKELNITSFALINNHTPADLVQEIVKQAQTKHRLNVKLSSNTAHSFDNLVPILKELNSFNNVTVTNIDLYDDGSDEYVNLYNWRDTLNKTDNLKIGKDYLEDVINGINEDTSNTGTSSVYNWQKLYPANYHFLRKDYLTLEPSLHELRDYIGDSLKQMQWDGFKKFNSKQQELFLSIVNFDKQKLQNEYNSSNLPNFVFTGTTVWAGNHEREYYAKQQINVINNAINESSPHYLGNSYDLFFKGHPGGGIINTLIMQNYPSMVDIPSKISFEVLMMTDMLPDAVAGIASSLYFTIPAEKIKFIVFTSTETITDRETALRSPLVQVMIKLGIVKEENVLFWA
B1: the turnover number (kcat) in data set [3] turned out to be 4.17 ± 0.333 s⁻¹.

B2: W365A: Psp26ST(15-501)-His6 with W365A point mutation; SEQ ID NO: 6 (protein)
chain: B1 chain with D221A, W351A
modifications: C-terminal His6; Synthetic Psp26ST(15-501) W365A
Consider B2, for which, in data set [4], the “yield of Neu5Acα2-6GalNAcαThr from GalNAcαThr, OP2E” value was found to be 85%.

B3: W365G: Psp26ST(15-501)-His6 with W365G point mutation; SEQ ID NO: 4 (protein)
chain: B1 chain with D221A, W351G
modifications: C-terminal His6; Synthetic Psp26ST(15-501) W365G
In the case of B3, the “yield of Neu5Acα2-6GalNAcαThr from GalNAcαThr, OP2E” value in data set [4] stood at 91%.

B4: R153G: Psp26ST(15-501)-His6 with R153G point mutation; SEQ ID NO: 10 (protein)
chain: B1 chain with R139G, D221A
modifications: C-terminal His6; Synthetic Psp26ST(15-501) R153G
Consider B4, for which the “sialylation activity compared to wild-type” value in data set [5] is listed as “knocked out the sialylation activity completely”.

B5: A235D: Psp26ST(15-501)-His6 with A235D point mutation; SEQ ID NO: 14 (protein)
chain: B1 chain
modifications: C-terminal His6; Synthetic Psp26ST(15-501) A235D
As for B5, the “donor hydrolysis activity compared to wild-type” value in data set [6] is given as “decreased donor hydrolysis activity”. Also, the “sialylation activity compared to wild-type” value in data set [5] was “maintaining most of the sialylation activity”.

B6: A124D: Psp26ST(15-501)-His6 with A124D point mutation; SEQ ID NO: 12 (protein)
chain: B1 chain with A110D, D221A
modifications: C-terminal His6; Synthetic Psp26ST(15-501) A124D
As to B6, the “sialylation activity compared to wild-type” value in data set [5] was “lost sialylation activity”.
